# Experiments:
# human GLP-1 R = target: T1, human GLP-1 R (Homo sapiens, UniProt P43220); assay: cAMP signal activation in human GLP1R cells (hGLP1R-U2OS, HTRF); format: cell-based
# T1 construct: expressed in transfected cells
# Procedure: A cell line stably expressing human GLP1 R (hGLP1R-U2OS) was used in this experiment. The cells were cultured in a growth medium (complete medium, DMEM+10% FBS+500 μg/mL G418 (Promega)) in an incubator at 37° C. and has 5% CO2 saturated humidity.
# hGLP1R-U2OS was inoculated into 384-well plate with 1.0×10^4 cells/well (5 μL) (cell working solution: DMEM+0.1% BSA+1 mM IBMX (available from Bide Pharmatech Ltd.)), and was placed in an incubator at 37° C. and held for 30 min. The compounds to be tested were diluted stage-by-stage with Stimulation Buffer 1 (1×) in the kit, and the diluted compounds were added to the culture plate with 5 μL/well. They were incubated in an incubator at 37° C. for 30 min. Then, 5 μL/well of cAMP-d2 prepared with Lysis & Detection buffer and 5 μL/well of Anti CAMP-Cryptate working solution were added successively, and they were incubated at room temperature for 60 min before detection.
# The ratio of signal emitted by donor to […] in each well was calculated as follows: HTRF rate=signal at 665 nm/signal at 620 nm×104, and then the HTRF rate was converted into a reaction rate (%). The concentration-response curve of each Example compound was created by a 4-parameter equation as Y=Bottom+(Top−Bottom)/(1+10^((Log IC50−X)*HillSlope)), and the half maximal (50%) effective concentration (EC50) was calculated.
# [1] = Pharmacokinetic study on rat; format: in vivo, SD rats
# Description: • SD rats: male, 180-250 g, purchased from Beijing Vital River Laboratory Animal Technology Co., Ltd. • Reagents: DMSO (dimethyl sulfoxide), PEG-400 (polyethylene glycol 400), physiological saline, heparin, acetonitrile, formic acid, and propranolol (internal standard), all of which are commercially available. • Instruments: Thermo Fisher Scientific LC-MS (U300 UPLC, TSQ QUANTUMN ULTRA triple quadrupole mass spectrometer).
# A compound was weighed and dissolved in a DMSO-PEG-400-physiological saline (5:60:35, v/v/v) system. After the rats were administered with the compound intravenously or by gavage, 200 μL of venous blood samples were collected at 15 min, 30 min, 1 h, 2 h, 5 h, 7 h, and 24 h (for i.v. group an additional collection was performed at 5 min) in heparinized EP tubes respectively, which were centrifuged at 12,000 rpm for 2 min, and the plasma was frozen at −80° C. for further testing. A certain amount of the test substance was precisely weighed and dissolved in DMSO to obtain a stock solution with a concentration of 2 mg/mL. An appropriate amount of the stock solution of the compound was accurately pipetted and diluted with acetonitrile to prepare a standard series solution. 20 μL of each of the above standard series solution was accurately pipetted, added with 180 μL of blank plasma, and vortexed mixed to prepare plasma samples corresponding to plasma concentrations of 0.3, 1, 3, 10, 30, 100, 300, 1000, 3000 ng/mL. Two-sample analysis was performed for each concentration to establish a standard curve. 30 μL of plasma (for samples that are obtained at 5 min, 15 min, 30 min, and 1 h after intravenous administration, the plasma were diluted 10 times) was taken, added with 200 μL of a solution of internal standard propranolol in acetonitrile (50 ng/ml), and vortexed mixed. The mixture was then added with 100 μL of pure water, and vortexed and mixed again. It was centrifuged at 4000 rpm for 5 min, and the supernatant was collected for LC-MS analysis. LC-MS detection conditions were as follows. • Chromatographic column: Thermo Scientific HYPERSIL GOLD C-18 UPLC column, 100*2.1 mm, 1.7 μm. • Mobile phase: water (with 0.1% formic acid)-acetonitrile; gradient elution was performed according to the table below.
# After blood drug concentrations was detected by LC-MS, WinNonlin 6.1 software was used to calculate pharmacokinetic parameters based on non-compartmental model.
# [2] = male, Sprague-Dawley (SD), plasma, iv, 1 mg/kg, i.v
# [3] = male, Sprague-Dawley (SD), plasma, po, 5 mg/kg, p.o
# T1 sequence (P43220 24-463): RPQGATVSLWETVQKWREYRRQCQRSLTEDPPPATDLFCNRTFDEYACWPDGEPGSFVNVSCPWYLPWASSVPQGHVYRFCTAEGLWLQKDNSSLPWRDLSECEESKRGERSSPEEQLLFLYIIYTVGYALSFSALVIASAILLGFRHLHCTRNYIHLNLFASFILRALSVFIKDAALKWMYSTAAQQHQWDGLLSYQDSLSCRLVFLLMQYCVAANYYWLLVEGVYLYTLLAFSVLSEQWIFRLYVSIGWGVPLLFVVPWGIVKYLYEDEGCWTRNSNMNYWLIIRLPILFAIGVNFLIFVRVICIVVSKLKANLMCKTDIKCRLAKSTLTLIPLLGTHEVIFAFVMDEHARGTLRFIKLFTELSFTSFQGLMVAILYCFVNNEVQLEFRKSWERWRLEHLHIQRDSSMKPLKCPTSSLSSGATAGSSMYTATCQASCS
EC50 (human GLP-1 R) [nM],SMILES,also measured
3.94,"C[C@@H](c1nc2ccc(C(=O)O)nc2n1C[C@@H]1CCO1)N1CCC(c2cccc(OCc3cccc4cc(F)cnc34)n2)CC1 [Example 19, 2-((S)-1-(4-(6-((3-fluoroquinolin-8-yl)methoxy)pyridin-2-yl)piperidin-1-yl)ethyl)-3-(((S)-oxetan-2-yl)methyl)-3H-imidazo[4,5-b]pyridin-5-carboxylic acid]",–
–,"C[C@@H](c1nc2ccc(C(=O)O)cc2n1C[C@@H]1CCO1)N1CCN(c2cc(C(F)(F)F)cc(OCc3ccc(C#N)cc3F)n2)CC1 [Example 44, 2-((S)-1-(4-(6-((4-cyano-2-fluorobenzyl)oxy)-4-(trifluoromethyl)pyridin-2-yl)piperazin-1-yl)ethyl)-1-(((S)-oxetan-2-yl)methyl)-1H-benzo[d]imidazol-6-carboxylic acid]","F ([1]; 5 mg/kg p.o vs 1 mg/kg i.v): 57.3%; AUC(0-t) [1, 2]: 2.26 µg·h/mL; Cmax [1, 2]: 4.36 µg/mL; clearance [1, 2]: 0.442 L/h/kg; half-life [1, 2]: 0.69 h; AUC(0-t) [1, 3]: 6.47 µg·h/mL; Cmax [1, 3]: 1.41 µg/mL; half-life [1, 3]: 2.9 h"
24.6,"C[C@@H](c1nc2ccc(C(=O)O)cc2n1C[C@@H]1CCO1)N1CCN(c2cc(C#N)cc(OCc3ccc(C#N)cc3F)n2)CC1 [Example 45, 2-((S)-1-(4-(4-cyano-6-((4-cyano-2-fluorobenzyl)oxo)pyridin-2-yl)piperazin-1-yl)ethyl)-1-(((S)-oxetan-2-yl)methyl)-1H-benzo[d]imidazol-6-carboxylic acid]",–
2.66,"C[C@@H](c1nc2ccc(C(=O)O)nc2n1C[C@@H]1CCO1)N1CCC(c2cccc(OCc3ccnc4cc(F)ccc34)n2)CC1 [Example 18, 2-((S)-1-(4-(6-((7-fluoroquinolin-4-yl)methoxy)pyridin-2-yl)piperidin-1-yl)ethyl)-3-(((S)-oxetan-2-yl)methyl)-3H-imidazo[4,5-b]pyridine-5-carboxylic acid]",–
10.3,"C[C@@H](c1nc2ccc(C(=O)O)cc2n1C[C@@H]1CCO1)N1CCC(c2cccc(OCc3ccc4cnn(CC(F)F)c4c3)n2)CC1 [Example 8, 2-((S)-1-(4-(6-((1-(2,2-difluoroethyl)-1H-indazol-6-yl)methoxy)pyridin-2-yl)piperidin-1-yl)ethyl)-1-(((S)-oxetan-2-yl)methyl)-1H-benzo[d]imidazol-6-carboxylic acid]",–
12,"C[C@@H](c1nc2ccc(C(=O)O)cc2n1C[C@@H]1CCO1)N1CCN(c2ncc(F)c(OCc3ccc(C#N)cc3F)n2)CC1 [Example 42, 2-((S)-1-(4-(4-((4-cyano-2-fluorobenzyl)oxy)-5-fluoropyrimidin-2-yl)piperazin-1-yl)ethyl)-1-(((S)-oxetan-2-yl)methyl)-1H-benzo[d]imidazol-6-carboxylic acid]",–
2.57,"C[C@@H](c1nc2ccc(C(=O)O)nc2n1C[C@@H]1CCO1)N1CCC(c2cccc(OCc3ccc(C#N)cc3F)n2)CC1 [Example 15, 2-((S)-1-(4-(6-((4-cyano-2-fluorobenzyl)oxy)pyridin-2-yl)piperidin-1-yl)ethyl)-3-(((S)-oxetan-2-yl)methyl)-3H-imidazo[4,5-b]pyridin-5-carboxylic acid]",–
2.92,"C[C@@H](c1nc2ccc(C(=O)O)nc2n1C[C@@H]1CCO1)N1CCC(c2cccc(OCc3ccc4cnn(CC(F)(F)F)c4c3)n2)CC1 [Example 17, 3-(((S)-oxetan-2-yl)methyl)-2-((S)-1-(4-(6-((1-(2,2,2-trifluoroethyl)-1H-indazol-6-yl)methoxy)pyridin-2-yl)piperidin-1-yl)ethyl)-3H-imidazo[4,5-b]pyridin-5-carboxylic acid]",–
3.45,"C[C@@H](c1nc2ccc(C(=O)O)nc2n1C[C@@H]1CCO1)N1CCC(c2cccc(OCc3ccc4cnn(CC(F)F)c4c3)n2)CC1 [Example 11, 2-((S)-1-(4-(6-((1-(2,2-difluoroethyl)-1H-indazol-6-yl)methoxy)pyridin-2-yl)piperidin-1-yl)ethyl)-3-(((S)-oxetan-2-yl)methyl)-3H-imidazo[4,5-b]pyridin-5-carboxylic acid]",–

# — patent US20240246959A1, “BENZIMIDAZOLE DERIVATIVE AND PREPARATION METHOD THEREFOR AND MEDICAL USE THEREOF” (Shenzhen Salubris Pharmaceuticals Co., Ltd., priority 2020, published 2024)
